Assay results published in patent US20250009716A1, “NOVEL INHIBITORS OF CLAUDIN-1 FOR THERAPEUTIC INTERVENTIONS” (BOARD OF REGENTS OF THE UNIVERSITY OF NEBRASKA, priority 2021, published 2025).
Entries after “also recorded” stand apart in the source; their conditions may differ.

Assays:
[1] = system: claudin-1 overexpressing cells; assay: Co-treatment with 5FU, inhibition of cell growth; assay type: cell-based; settings: 16 in combination with 5-FU
Text: Curve fitting analysis was done using four parametric logistic regression curve.
The CSC cells contribute to the generation of metastasis (16-19), and key CSC characteristics are highly relevant to metastasis, including invasive motility, and, resistance to apoptosis (20,21). […] Considering that chemoresistance is central to the CRC progression and metastasis, we further tested if adjuvant use of 16 with 5FU can have significant bearing upon these traits. Colon cancer cells were subjected to exogenous administration of 16 alone, or in combination with the 5-FU, the conventional anti-CRC drug. […] To further determine the mechanistic details the effect of 16 on association of claudin-1 and Src, SW480claudin-1 cells were treated with 16 or the vehicle and resultant cell lysate was subjected to Proximity ligation assay (PLA) or Co—IP.

[2] = Tissue distribution after i.v. dose; assay type: in vivo, mice
Method: To determine the in vivo characteristics of this drug, a pharmacokinetic and tissue distribution study on 16 was performed. Following a single i.v. dose of 16 (1 mg/kg) in mice (C57B/16; n=5), serial blood samples were obtained at 0.08, 0.25, 0.75, 2, 4, 6, 8 and 24 hours after the injection and plasma samples were analyzed for 16 concentrations. Pharmacokinetic parameter values were obtained from the plasma concentration-time data using standard non-compartmental methods (WinNonlin, PharSight Corp). […] To assess the tissue distribution of 16, mice were sacrificed at 2, 8 and 24 hours after the i.v. administration of the drug. Measurable concentrations of 16 were detected in all studied tissues at 2, 8, and 24 h. […] Next, metabolic stability studies of 16 was evaluated using mouse liver S9 fractions for the in vitro assessment of phase I and II metabolism. […] Testosterone, 7-HC and diclofenac were used as positive controls, ensuring proper incubation conditions were maintained. […] The results of these in vitro drug metabolism studies guided the rational development of 16 structural analogs.
Eight-week-old healthy Balb/c mice (male and female) mice were utilized for the pharmacokinetic and biodistribution studies. In this section, up to two different administration routes (oral or IP) were evaluated for each selected drug product. The specified drug and dose were administered to a 25 g mouse. A total of 36 mice were used for each compound tested. Blood was collected by cheek bleeding at selected times between 0-168 h post-injection. Liver, spleen, kidney, brain and bone marrow were harvested at terminal time points (2, 8, 24, 48, 72 h). Tissue samples were collected and processed for bioanalysis. The drug concentration in blood and tissues was measured by LC-MS/MS using methods developed during preliminary studies and validated according to FDA guidance. Drug accumulation in tissue was assessed by calculating a tissue to plasma concentration ratio (Kp), an indicator of drug accumulation (FIGS. 6A, 6B, 7, and 38).

[3] = Phase I metabolism in human liver microsomes; assay type: in vitro ADME; settings: 60 minutes, compared to 16
Text: The result of the metabolic stability study was expressed as the % drug conc. remaining.
(§1) To this end, a library of molecules was synthesized in order to develop an initial SAR evaluation. The first compounds tested eliminated the acylated (thio) urea as well as the napthyl group and evaluated just the urea/phenyl compounds (Compounds 1-6). The methoxy group of the naphthalene ring system was needed when the benzimidazole group was present (16 vs. Compound 8). […] The result of metabolic stability was expressed as the percentage of drug remaining at each time. […] To further determine the effect of PDS-0330 on p-Src expression and association, cells were treated with Compound 1, 16 and PDS-0330. Expression and association with p-Src was unaffected with Compound 1 (negative control). The specificity of PDS-0330 for CLDN1 was further confirmed by treating SW480^CLDN1, HCT116^CLDN2 (overexpressing another tight junction protein) or normal IEC-6 cells with PDS-0330 (FIG. 12).
Metabolic stability and reaction phenotyping: The in vitro metabolic stability of studies was determined using mice and human liver microsomes and S9 fractions (XenoTech, LLC, Lenexa, KS, USA) following standard protocols (33, 35, 36). […] Drug concentrations were determined using LC-MS/MS. […] UGTs are analyzed in Corning® Supersomes™ if incubation of HLMs with UDPGA also results in metabolite formation.

[4] = system: IEC-6 (normal cells); assay: Cell viability, specificity for CLDN1; assay type: cell-based
Method: (§2) SW480^claudin-1, IEC-6 (normal cells), and HCT116^CLDN2 cells were treated with different concentrations of PDS-0330 and cell viability was determined.
as §1

[5] = system: SW480CLDN1 cells; assay: Cell viability, specificity for CLDN1; assay type: cell-based
Method: as §2, §1

[6] = system: p-Src and p-EphA2 in SW480claudin-1 cells; assay: Phosphorylation of Src and EphA2 versus dasatinib; assay type: cell-based
Method: Effects on (A) phosphorylation of Src and EphA2 and (B) cell survival (MTT assay) were determined.

Row | SMILES | combination effect with 5FU [1] | descending order of Kp ratios ([2]; 1 mg/kg i.v.) | tissue concentrations ([2]; 2, 8 and 24 h after 1 mg/kg i.v.) | Kp ([2]; C57B/16, mouse, iv, all tissues except brain, 1 mg/kg i.v., read-out: tissue to plasma concentration ratio (Kp)) | metabolic stability [3] | effect on cell viability [4] | percentage of dead cells [5] | p-EphA2 and p-Src expression [6]
1 | COc1cc2ccccc2cc1C(=O)NC(=S)Nc1ccc(-c2nc3ccccc3[nH]2)cc1 [Compound 16] | significant synergy; also recorded: synergistic effect in inhibition of cell growth | lungs>liver>spleen>kidney>heart>>brain | higher concentrations in the lung and liver tissue | ≥ 1 | – | – | – | –
2 | O=C(NC(=S)Nc1ccc(-c2nc3ccccc3o2)cc1)c1ccc2ccccc2c1 [PDS-0330] | – | – | – | – | metabolically stable over 60 minutes | not affected | significant increase in the percentage of dead cells | inhibited p-EphA2 expression along with p-Src; also recorded: more effective in inhibiting cell survival and p-EphA2 expression
